These results are taken from patent EP3572468B1, “CYANINE DYES AND THEIR USAGE FOR IN VIVO STAINING OF MICROORGANISMS” (PHILIPPS-UNIVERSITÄT MARBURG, priority 2018, dated 2019).

Several values for one entry are separate records, joined by “and”; a condition that tells them apart may be missing. Identical values can stand only once.

Data set [1] relates to double-stranded calf thymus DNA (dsDNACT). The data set can be described thus: Fluorescence titration with dsDNACT, binding affinity by DynaFit. Conditions: 1 µM dye in 10 mM Tris pH 7.6 and 50 mM KCI, 20°C, emission at 647 nm, 1:1 binding model, read-out: binding affinity (KD, apparent dissociation constant). The method, then: Fluorescence measurements and tritations were performed on a Jasco FP-6500 spectrofluorometer equipped with a Thermo Haake WKL 26 water recirculator at 20°C. Unless otherwise noted, a 1400 µL fluorescence cuvette of HellmaAnalytics (104F-QS) was used and the measurements were performed with the following settings: increment: 1.0 nm; integration time: 0.2 s; speed: 500 nm/min; sensitivity: medium; excitation slit width: 3 nm; emission slit width: 3 nm; excitation wavelength 610 nm. The emission spectra were recorded from 625 to 750 nm at 20°C. From all spectra, the corresponding background signal was substracted. […] Table 1: Binding sites and sequences of DNA hairpins, which were used for fluorescence titrations experiments.
All fluorescence titrations followed the same procedure: to 1 mL of 1 µM solution of corresponding cyanine dye derivative in 10 mM Tris pH 7.6 and 50 mM KCI aliquots of a stock solution of the corresponding annealed DNA (dsDNAhAT and dsDNAhGC = 435 µM; dsDNACT = 0.65 mM) were successively added and the fluorescence spectra were recorded in a range from 625-750 nm after 1 min of each addition. […] The fluorescence emission plotted is the resulting mean of the three independent measurements. […]
All binding affinities were determined by fitting the obtained experimental data in the DynaFit 4.0 software. […]

A short description of data set [2]: Fluorescence quantum yield, dye alone. Conditions: dye alone, without dsDNACT; 10 mM Tris pH 7.6 and 50 mM KCI, 25°C; reference dye Alexa Fluor 647. In kind it is physicochemical. The method, then:
Fluorescence intensity values for the quantum yields were determined on an ISS PC1 spectrofluorometer with an ISS 11650 lamp connected to an ISS Simpson model 109 and an ISS 80011 photomulitplier connected to a MGW Lauda K2R D and an Amherst Scientific Corp. 7600F for cooling. A VWR Refrigerated Circ 1160S was connected for the cooling of the cuvette chamber. It was measured in a 1400 µL fluorescence cuvette of HellmaAnalytics (104F-QS) at 25°C using the following settings: increment: 2.0 nm; integration time: 1.0 s; excitation slit width: 0.25 mm; emission slit width: 0.5 mm; excitation wavelength 590 nm. The emission spectra were recorded from 610 to 750 nm. From all spectra the corresponding background signal was substracted. Absorbance values were measured on a Jasco V-650 UV-Vis Spectrophotometer equipped with a Jasco PAC-743 temperature controlled cell holder and a Julabo F250 cooling system. UV-Vis titration measurements were performed in a 1400 µL quarz cuvette with a pathlength of 1 cm at 25°C using the following settings: increment: 1.0 nm; bandwidth: 1.0 nm; scanning speed: 1000 nm/min; scanning mode: continuous. From all values, the corresponding background signal was subtracted. The values for the reference compounds were measured in duplicates, the ones for 6-TramTO-3 with and without dsDNACT in triplicates. The quantum yields of 6-TramTO-3 with (30 eq.) and without dsDNACT were determined in 10 mM Tris pH 7.6 and 50 mM KCI. All measurement were following the procedure of Horiba and using the equation E1: ΦX = ΦST ((GradX)/(GradST)) ((((ηX))^2)/(((ηST))^2)) [formula] where Φ = fluorescence quantum yield, η = refractive index of the used solvent, Grad = gradient from the plot of integrated fluorescence intensity vs. absorbance and the subscripts ST and X denote standard and tested sample. […]
Table 3: Determined slopes and corresponding quantum yields for the two reference compounds Alexa Flour® 647 and Atto 655 and for 6-TramTO-3 with and without dsDNACT.

The test system of the next data set is dsDNACT. Nature of the data set: UV-Vis absorbance titration with dsDNACT. In kind it is binding, calf. Conditions: addition of dsDNACT (< 2.5 eq of DNA); 12.3 µM dye in 10 mM Tris pH 7.6 and 50 mM KCI. How it is done:
UV-Vis titration measurements were performed on a Jasco V-650 UV-Vis spectrophotometer equipped with a Jasco PAC-743 temperature controlled cell holder and a Julabo F250 cooling system to maintain the temperature constant at 20°C during the measurements. UV-Vis titration measurements were performed in a 500 µL quarz cuvette with a pathlength of 1 cm at 20°C. The absorbance spectra were recorded from 400 nm to 800 nm.
UV-Vis titration measurements were performed at a concentration of 12.3 µM of the dye in 10 mM Tris pH 7.6 and 50 mM KCI. Increasing aliquots of a 1.54 mM and 15.4 mM stock solutions of dsDNACT were successively added and the absorbance spectra were recorded in a range from 400-800 nm after 1 min of each addition. Three independent measurements were carried out. The presented spectra are the resulting mean of the three independent measurements.

Take `CC[n+]1ccc(/C=C/C=C2\Sc3ccccc3N2CCCCCCn2cc(CN)nn2)c2ccccc21.[I-]` [6-TramTO-3, 4-((1E,3Z)-3-(3-(6-(4-(aminomethyl)-1H-1,2,3-triazol-1-yl)hexyl)benzo[d]thiazol-2(3H)-ylidene)prop-1-en-1-yl)-1-ethylquinolin-1-ium iodide]: in data set [1], the Kd was 19.5 ± 2.6 µM. For the same compound, in data set [2], the “quantum yield (ΦF)” value is 0.005 and 0.0052. Also, the “blue shift of the absorption maximum” value in the data set on dsDNACT is on record as 102 nm.
